In brackets after ≈: the same amount, converted by molar mass.
Experiments:
Experiment in all cases: ≥ marks a high value that may be exact or a test limit, other limits are often not marked, values filed in µg/mL are converted to µM
[1] = test system: Candida albicans ATCC 1023
Candida albicans = test system: Candida albicans
Candida tropicalis = test system: Candida tropicalis
[2] = test system: Enterococcus faecalis ATCC 29212
[3] = test system: Enterococcus faecalis NCTC 12697
[4] = test system: Escherichia coli ATCC 25922
[5] = test system: Escherichia coli NCTC 10418
[6] = test system: Pseudomonas aeruginosa ATCC 27853
[7] = test system: Staphylococcus aureus ATCC 25923
[8] = test system: Staphylococcus aureus NCTC 10788
[9] = test system: Enterobacter cloacae BCRC 10401
[10] = test system: Escherichia coli BCRC 10675
[11] = test system: Klebsiella aerogenes BCRC 10370
[12] = test system: Klebsiella oxytoca BCRC 13985
Lactococcus garvieae = test system: Lactococcus garvieae
[13] = test system: Listeria monocytogenes BCRC 14845
[14] = test system: Pseudomonas aeruginosa BCRC 10944
[15] = test system: Staphylococcus aureus BCRC 10780
[16] = test system: Staphylococcus aureus BCRC 10781
[17] = test system: Staphylococcus xylosus BCRC 12930
[18] = test system: Streptococcus equinus BCRC 14729
Streptococcus iniae = test system: Streptococcus iniae
[19] = test system: Vibrio alginolyticus BCRC 12829
Vibrio alginolyticus = test system: Vibrio alginolyticus
[20] = test system: Vibrio anguillarum serotype O1
Vibrio harveyi = test system: Vibrio harveyi
[21] = test system: Vibrio parahaemolyticus BCRC 10806
Vibrio parahaemolyticus = test system: Vibrio parahaemolyticus
[22] = test system: Yersinia enterocolitica BCRC 13999

| MIC [9] [µM] | MIC [10] [µM] | MIC [11] [µM] | MIC [12] [µM] | MIC (Lactococcus garvieae) [µM] | MIC [13] [µM] | MIC [14] [µM] | MIC [15] [µM] | MIC [16] [µM] | MIC [17] [µM] | MIC [18] [µM] | MIC (Streptococcus iniae) [µM] | MIC [19] [µM] | MIC (Vibrio alginolyticus) [µM] | MIC [20] [µM] | MIC (Vibrio harveyi) [µM] | MIC [22] [µM] | Compound | MIC [21] [µM] | MIC (Vibrio parahaemolyticus) [µM] | other results |
| --- | --- | --- | --- | --- | --- | --- | --- | --- | --- | --- | --- | --- | --- | --- | --- | --- | --- | --- | --- | --- |
|  |  |  |  |  |  |  |  |  |  |  |  |  |  |  |  |  | CSCC[C@H](NC(=O)[C@H](CC(=O)O)NC(=O)[C@@H](NC(=O)[C@@H](NC(=O)[C@H](C)NC(=O)[C@H](CC(N)=O)NC(=O)[C@H](CC(C)C)NC(=O)[C@H](C)NC(=O)[C@H](C)NC(=O)[C@H](CCCCN)NC(=O)CNC(=O)[C@H](C)NC(=O)[C@H](C)NC(=O)[C@H](CCCCN)NC(=O)CNC(=O)[C@@H](NC(=O)[C@H](CC(N)=O)NC(=O)[C@H](CCCCN)NC(=O)[C@H](CC(C)C)NC(=O)[C@H](CC(C)C)NC(=O)[C@@H](NC(=O)[C@H](CCCCN)NC(=O)[C@H](Cc1c[nH]c2ccccc12)NC(=O)[C@H](CC(C)C)NC(=O)[C@H](C)N)[C@@H](C)O)C(C)C)C(C)C)[C@@H](C)O)C(=O)N[C@H](C(=O)N[C@@H](CC(N)=O)C(=O)N[C@@H](CCC(N)=O)C(=O)O)C(C)C [ALWKTLLKNVGKAAGKAALNAVTDMVNQ] |  |  | MIC [1]: 10.9 µM (≈ 31.9 µg/mL); MIC (Candida albicans): 21.8 µM (≈ 63.8 µg/mL); MIC (Candida tropicalis): 10.9 µM (≈ 31.9 µg/mL); MIC [2]: 10 µM (≈ 29.3 µg/mL); MIC [3]: 10 µM (≈ 29.3 µg/mL); MIC [4]: 2.5 µM (≈ 7.32 µg/mL); MIC [5]: 2.5 µM (≈ 7.32 µg/mL); MIC [6]: 40 µM (≈ 117 µg/mL); MIC [7]: 1.3 µM (≈ 3.8 µg/mL); MIC [8]: 1.3 µM (≈ 3.8 µg/mL) |
| 14.7 (≈ 32 µg/mL) | 7.34 (≈ 16 µg/mL) | 29.4 (≈ 64 µg/mL) | 29.4 (≈ 64 µg/mL) | ≥ 58.7 | ≥ 58.7 | 29.4 (≈ 64 µg/mL) | ≥ 58.7 | ≥ 58.7 | 29.4 (≈ 64 µg/mL) | ≥ 58.7 | ≥ 58.7 | ≥ 58.7 | 29.4 (≈ 64 µg/mL) | 29.4 (≈ 64 µg/mL) | 29.4 (≈ 64 µg/mL) | ≥ 58.7 | CC[C@H](C)[C@H](NC(=O)[C@H](CCCCN)NC(=O)[C@@H](NC(=O)[C@@H](NC(=O)[C@@H](NC(=O)[C@H](CCCCN)NC(=O)[C@@H](NC(=O)[C@@H](NC(=O)[C@H](CCCCN)NC(=O)[C@H](CCCCN)NC(=O)[C@H](C)NC(=O)[C@H](Cc1ccc(O)cc1)NC(=O)[C@@H](NC(=O)[C@H](C)NC(=O)CN)[C@@H](C)O)[C@@H](C)CC)[C@@H](C)CC)[C@@H](C)O)[C@@H](C)CC)[C@@H](C)O)C(=O)N[C@@H](C)C(=O)N[C@H](C(=O)N[C@H](C(=O)N[C@@H](C)C(=O)N[C@@H](Cc1c[nH]c2ccccc12)C(=O)O)[C@@H](C)O)[C@@H](C)O [GATYAKKIIKTITKIATTAW] | ≥ 58.7 | 29.4 (≈ 64 µg/mL) |  |
| 6.75 (≈ 16 µg/mL) | 13.5 (≈ 32 µg/mL) | 6.75 (≈ 16 µg/mL) | ≥ 54 | 13.5 (≈ 32 µg/mL) | 3.38 (≈ 8 µg/mL) | 13.5 (≈ 32 µg/mL) | 6.75 (≈ 16 µg/mL) | 6.75 (≈ 16 µg/mL) | 6.75 (≈ 16 µg/mL) | ≥ 54 | 13.5 (≈ 32 µg/mL) | 13.5 (≈ 32 µg/mL) | 3.38 (≈ 8 µg/mL) | 3.38 (≈ 8 µg/mL) | 3.38 (≈ 8 µg/mL) | 27 (≈ 64 µg/mL) | CC[C@H](C)[C@H](NC(=O)[C@H](C)NC(=O)[C@@H](NC(=O)[C@H](Cc1ccc(O)cc1)NC(=O)[C@@H](NC(=O)[C@H](CCCCN)NC(=O)[C@H](CCCCN)NC(=O)[C@H](C)NC(=O)[C@H](Cc1ccccc1)NC(=O)[C@H](CC(N)=O)NC(=O)[C@H](CC(C)C)NC(=O)[C@@H](NC(=O)[C@H](CCCCN)NC(=O)[C@H](CCCCN)NC(=O)[C@H](CC(C)C)NC(=O)[C@H](Cc1ccccc1)NC(=O)[C@@H](NC(=O)[C@H](CC(C)C)NC(=O)CN)[C@@H](C)O)[C@@H](C)CC)[C@@H](C)CC)[C@@H](C)O)C(=O)N[C@@H](Cc1c[nH]c2ccccc12)C(=O)O [GLTFLKKILNFAKKIYTAIW] | 13.5 (≈ 32 µg/mL) | 3.38 (≈ 8 µg/mL) |  |
| 6.09 (≈ 16 µg/mL) | 6.09 (≈ 16 µg/mL) | 6.09 (≈ 16 µg/mL) | 6.09 (≈ 16 µg/mL) | ≥ 48.7 | 12.2 (≈ 32 µg/mL) | 12.2 (≈ 32 µg/mL) | 3.04 (≈ 8 µg/mL) | 3.04 (≈ 8 µg/mL) | 3.04 (≈ 8 µg/mL) | ≥ 48.7 | 12.2 (≈ 32 µg/mL) | 12.2 (≈ 32 µg/mL) | 3.04 (≈ 8 µg/mL) | 3.04 (≈ 8 µg/mL) | 3.04 (≈ 8 µg/mL) | ≥ 48.7 | CC[C@H](C)[C@H](NC(=O)[C@H](Cc1ccc(O)cc1)NC(=O)[C@H](CCCCN)NC(=O)[C@H](Cc1ccccc1)NC(=O)[C@H](Cc1ccccc1)NC(=O)[C@H](CCCCN)NC(=O)[C@H](CC(N)=O)NC(=O)[C@@H](NC(=O)[C@H](Cc1ccc(O)cc1)NC(=O)[C@H](CCCCN)NC(=O)[C@@H](NC(=O)[C@@H](NC(=O)[C@H](CC(N)=O)NC(=O)[C@H](CC(N)=O)NC(=O)[C@@H](NC(=O)[C@H](Cc1ccc(O)cc1)NC(=O)[C@H](CCCCN)NC(=O)[C@H](Cc1ccc(O)cc1)NC(=O)CN)[C@@H](C)CC)[C@@H](C)CC)[C@@H](C)CC)[C@@H](C)CC)C(=O)N[C@@H](Cc1c[nH]c2ccccc12)C(=O)O [GYKYINNIIKYINKFFKYIW] | 12.2 (≈ 32 µg/mL) | 3.04 (≈ 8 µg/mL) |  |

From DBAASP
